In paper PMC3794980, “Identification of Conserved and HLA Promiscuous DENV3 T-Cell Epitopes” (PLoS Neglected Tropical Diseases, 2013):
Like-named read-outs stand apart in the source and are kept apart here.

Key:
Assay in all cases: biochemical
Format in all cases: binding
DRB4*0101 = DRB4*0101 (Homo sapiens, UniProt P01903+P13762, G164S)
DRB1*1101 = DRB1*1101 (Homo sapiens, UniProt P01903+P01911, A100R/A169T/A87E/I96F/K41T/L162R/M171V/P40S/Q125H/Q178H/Q39Y/Q99D/R42S/S66Y/T262R/V115G/W38E)
DRB1*0405 = DRB1*0405 (Homo sapiens, UniProt P01903+P01911, A100R/A169T/D86S/F76Y/I96L/K127E/L162R/M171V/N62H/P40V/Q125Y/R42H/S133A/S149N/S66Y/V115G/V209L/W38E)
DRB1*1302 = DRB1*1302 (Homo sapiens, UniProt P01903+P01911, A100E/A169T/K41T/L162R/M171V/P40S/Q125H/Q178H/Q39Y/Q99D/R42S/S66N/T262R/V115G/W38E/Y61H)
DRB1*0401 = DRB1*0401 (Homo sapiens, UniProt P01903+P01911, A100K/A169T/F76Y/I96L/K127E/L162R/M171V/N62H/P40V/Q125Y/R42H/S133A/S149N/S66Y/V115G/V209L/W38E)
DRB1*0901 = DRB1*0901 (Homo sapiens, UniProt P01903+P01911, A100R/A103E/D57H/D86V/F55Y/F60I/F76Y/I96F/K127E/L162R/M171V/P40D/Q125H/Q99R/R33Q/R42F/S133A/S66N/T210M/V115G/W38K/Y107V/Y59G/Y89S)
DRB1*0101 = DRB1*0101 (Homo sapiens, UniProt P01903+P01911, A100R/D57E/F55L/F60I/F76Y/I96L/L162R/M171V/P40L/Q125E/R42F/V115G/Y59C)
DRB1*0701 = DRB1*0701 (Homo sapiens, UniProt P01903+P01911, A100R/A102G/A103Q/D57E/D86V/E43K/F76Y/K127E/L162R/M171V/P40G/Q125H/Q99D/R33Q/R42Y/R54Q/S133A/S66F/T210M/V115G/Y107V/Y59L/Y89S)
DRB5*0101 = DRB5*0101 (Homo sapiens, UniProt P01903+Q30154)
DRB1*0802 = DRB1*0802 (Homo sapiens, UniProt P01903+P01911, A100R/A103L/A169T/F76Y/H45Y/I96F/K41T/L162R/M171V/P40S/Q125H/Q178H/Q39Y/Q99D/R218S/R42G/S66Y/V115G/W38E)
DRB3*0101 = DRB3*0101 (Homo sapiens, UniProt P01903+P79483)
DRB1*0404 = DRB1*0404 (Homo sapiens, UniProt P01903+P01911, A100R/A169T/F76Y/I96L/K127E/L162R/M171V/N62H/P40V/Q125Y/R42H/S133A/S149N/S66Y/V209L/W38E)
DRB1*0301 = DRB1*0301 (Homo sapiens, UniProt P01903+P01911, A100K/A102G/A103R/A169T/F55Y/I96L/K41T/L162R/M171V/P40S/Q125H/Q178H/Q39Y/R42S/S66N/T106N/T262R/W38E/Y61H)
DRB1*1501 = DRB1*1501 (Homo sapiens, UniProt P01903+P01911)
[1] = competitive inhibition of radiolabeled standard peptide, '-' distinct from ND, read-out: Binding Affinity (nM) DRB1*1302
[2] = competitive inhibition of radiolabeled standard peptide, '-' distinct from ND, read-out: Binding Affinity (nM) DRB1*0901

DRB1*0301, sequence (P01903 26-254, other chains not shown): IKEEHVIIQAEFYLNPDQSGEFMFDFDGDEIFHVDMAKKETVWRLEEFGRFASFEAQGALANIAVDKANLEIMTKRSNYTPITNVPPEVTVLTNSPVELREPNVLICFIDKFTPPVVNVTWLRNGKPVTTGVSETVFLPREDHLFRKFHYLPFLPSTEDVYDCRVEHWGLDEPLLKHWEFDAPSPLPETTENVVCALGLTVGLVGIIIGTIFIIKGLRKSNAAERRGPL
DRB1*1101, sequence (P01903 26-254, other chains not shown): as above
DRB1*1302, sequence (P01903 26-254 limits assumed, other chains not shown): as the sequence (P01903 26-254, other chains not shown) above

| Compound | IC50 (DRB4*0101) | IC50 (DRB1*1101) | IC50 (DRB1*0405) | IC50 (DRB1*1302; [1]) | IC50 (DRB1*0401) | IC50 (DRB1*0901; [2]) | IC50 (DRB1*0101) | IC50 (DRB1*0701) | IC50 (DRB5*0101) | IC50 (DRB1*0802) | IC50 (DRB3*0101) | IC50 (DRB1*0404) | IC50 (DRB1*0301) | IC50 (DRB1*1302) | IC50 (DRB1*1501) | IC50 (DRB1*0901) |
| --- | --- | --- | --- | --- | --- | --- | --- | --- | --- | --- | --- | --- | --- | --- | --- | --- |
| CC[C@H](C)[C@H](NC(=O)[C@H](CC(=O)O)NC(=O)[C@@H](N)CC(C)C)C(=O)N[C@@H](CCC(=O)O)C(=O)N[C@@H](CC(C)C)C(=O)N[C@@H](CCC(N)=O)C(=O)N[C@@H](CCCCN)C(=O)N[C@H](C(=O)N[C@@H](CCC(=O)O)C(=O)N[C@@H](C)C(=O)N[C@H](C(=O)N[C@@H](CCC(N)=O)C(=O)N[C@@H](CC(C)C)C(=O)N[C@@H](C)C(=O)N[C@H](C(=O)O)[C@@H](C)O)[C@@H](C)O)[C@@H](C)O [Envelope 41-55] | 6.5 nM | 3260 nM | 583 nM | 27 nM | 349 nM | 132 nM | 2.3 nM | 3.1 nM | 684 nM | 5.1 nM | 3330 nM |  |  |  |  |  |
| CC[C@H](C)[C@H](NC(=O)[C@H](CC(C)C)NC(=O)[C@H](CCCCN)NC(=O)CN)C(=O)N[C@@H](Cc1c[nH]cn1)C(=O)N[C@@H](CCC(=O)O)C(=O)N[C@@H](Cc1c[nH]c2ccccc12)C(=O)N[C@@H](CS)C(=O)N[C@@H](CS)C(=O)N[C@@H](CCCNC(=N)N)C(=O)N[C@@H](CO)C(=O)N[C@@H](CS)C(=O)N[C@H](C(=O)N[C@@H](CC(C)C)C(=O)N1CCC[C@H]1C(=O)O)[C@@H](C)O [NS1 305-319] | 2040 nM | 4400 nM | 3500 nM | 3190 nM | 1770 nM | 11400 nM | 2600 nM | 1200 nM | 6170 nM | 7200 nM | 1240 nM | 4390 nM | 841 nM |  |  |  |
| CSCC[C@H](NC(=O)CNC(=O)[C@H](CCCCN)NC(=O)[C@H](CC(C)C)NC(=O)[C@H](CCC(=O)O)NC(=O)[C@H](CC(C)C)NC(=O)[C@H](CCCCN)NC(=O)[C@H](CC(=O)O)NC(=O)[C@H](CCSC)NC(=O)[C@H](CCCCN)NC(=O)[C@H](CC(C)C)NC(=O)[C@H](CCCNC(=N)N)NC(=O)[C@H](CS)NC(=O)[C@H](CCCCN)NC(=O)[C@@H](N)CC(C)C)C(=O)O [Envelope 281-295] |  | 3330 nM | 9740 nM |  | 2910 nM |  |  | 2160 nM | 2500 nM | 4460 nM | 31 nM | 13200 nM | 17 nM | 915 nM | 652 nM | 7010 nM |
| CC[C@H](C)[C@H](NC(=O)[C@H](CCCCN)NC(=O)CNC(=O)[C@H](CCC(=O)O)NC(=O)[C@@H](NC(=O)[C@H](CS)NC(=O)[C@H](CC(C)C)NC(=O)[C@H](CCCCN)NC(=O)[C@H](CCCNC(=N)N)NC(=O)[C@H](CC(C)C)NC(=O)[C@@H](NC(=O)[C@H](C)NC(=O)[C@H](CC(C)C)NC(=O)[C@H](CCC(N)=O)NC(=O)[C@@H](N)[C@@H](C)O)[C@@H](C)O)[C@@H](C)CC)C(=O)O [Envelope 51-65] | 154 nM | 40 nM | 6340 nM | 1080 nM | 2140 nM | 2340 nM |  |  | 1850 nM | 130 nM | 8300 nM | 10100 nM | 2510 nM |  | 982 nM |  |
